Structures are written as SMILES. Square brackets hold non-standard residues; d marks the D form. Peptide text beside a SMILES is read from it. 2Nal = N[C@@H](Cc1ccc2ccccc2c1)C(=O)O

In one assay the test system is PC-3 cells. As to the kind of experiment: MTS cell viability assay. Format: cell-based. The note with it: PC-3, MTS, 72 hours, 0-250 μM. The method, then: FIG. 2. (a) Structure of FLM-c2 derivatives D1 (top), D2 (middle) and D3 (bottom) (b) Molecular modelling of compounds D1, D2 and D3. Representation of the molecules are as described in FIG. 1. (c) MTS assay of PC-3 cells treated with FLM-c2, D-1 D3 (0.1-250 μM).
To quantify cell toxicity of FLM-c2, the MTS (3-(4,5-dimethylthiazol-2-yl)-5-(3-carboxymethoxyphenyl)-2-(4-sulfophenyl)-2H-tetrazolium) assay was performed using CellTiter 96@AQueous One Solution Cell Proliferation Assay reagent (Promega, Madison, WI), as per the manufacturer's instructions. PC-3 cells were seeded at 2000 cells per well on a 96 well plate overnight at 37° C. and 5% C02. Cells were then treated with 0-250 μM with each of FLM-c2, D1, D2 and D3, which was incubated for 72 hours at 37° C. and 5% C02. Medium was replaced with 100 μL/well of phenol red-free MEM (Sigma-Aldrich) and 20 μL/well of the MTS reagent was added. After incubation for 3 hours in 37° C. with 5% C02, the absorbance was measured at 490 nm with Spectramax M5e.
A general note: Tetrazolium assays rely on reduction of a dye to a coloured formazan, in cell work by metabolically active cells.

Assay [1] has as its target T1, hGIIA interaction with EGFR (Homo sapiens, UniProt P00533).
T1 construct: endogenous in cells; host or cells: PC-3
As to the kind of experiment: Co-immunoprecipitation of hGIIA and EGFR in PC-3 cells. Conditions: PC-3, hGIIA 2 μg/mL, FLM-c2 100 μM. Format: cell-based. On the procedure:
FIG. 1. (a), Amino acid sequence of human group IIA-secreted phospholipase A2 (hGIIA) predicted to interact with EGF-binding site of EGFR shown in magenta; helices shown as red braids; β strands as green arrows; and loops as blue lines. Sequence from which FLM-c2 is derived shown with orange box. (b), Prostate cancer cell line PC-3 incubated with hGIIA (2 μg/mL) and FLM-c2 (100 μM) for 3 hours before lysing and pulldown with hGIIA antibody followed by detection with EGFR antibody. (c), molecular modelling of EGF (pink ribbon) and (d), FLM-c2 analogue (cyclo-(Phe-Leu-Ser-Phe-Arg)) (stick diagram. Yellow, carbon; blue, nitrogen; red oxygen) binding to EGFR. EGFR is depicted as a surface model (red, basic surfaces; blue, acidic surfaces, yellow; cysteine residues; green, hydrophobic surfaces; white neutral surfaces). (e) PC-3 cells co-transfected with Rab5-mCherry (red), EGFR-GFP (green) and treated with hGIIA/AF647 (purple) as well as c2 at 1 μM and 10 μM for 24 hours. EGF (25 ng/mL) and Lapatinib (5 μM) were used as control treatments. N=3, >5 cells per replicate.
PC-3 cells were seeded in a 6-well plate at 300,000 cells/well and grown overnight at 37° C. and 5% CO2. Cells were then incubated with 2 μg/mL hGIIA with and without FLM-c2 (100 μM) for two hours. After incubation, cells were washed three times with 10 mL ice cold PBS for 2 min. […]

Another assay has as its target EGFR (Homo sapiens, UniProt P00533). Kind of assay: Western blot of EGFR in PC-3 cells. The assay is classed as cell-based. Conditions: PC-3, 100 μM, 24 hours. The method, then: FIG. 3. (a) PC-3 cells treated with DMSO (0.5%), FLM-c2 (100 μM), D1-D3 (100 μM) or EGF (50 ng/mL) for 24 h, detected for EGFR and GAPDH. (b) PC-3 cells tagged with EGFR-EGFP and lysotracker treated with DMSO (0.5%) or D3 (100 μM) for 24 h.
FIG. 4. (a) PC-3 cells were treated with D1-D3 (100 μM) for 3, 16, 24 and 48 hours. EGFR and ß-Actin ratio was detected. (b) the EGFR:ß-Actin ratio was plotted after normalising to DMSO control.
PC-3 cells were seeded in a 6 well plate at 200,000 cells/well overnight at 37° C. and 5% C02. Media was removed, cells were washed with PBS and serum free media added 1 hour before treatment with FLM-c2, D1-D3 for 3-48 hours. After treatment, media was removed and cells were washed with ice cold PBS. PBS was removed and cells were scraped into 1 mL of PBS containing 5.3 mM of EDTA and centrifuged at 2500 g for 2 min. PBS was removed and cells were lysed with lysis buffer (PBS, 0.1% NP-40, 0.1% sodium deoxycholate, 150 mM NaCl, 1 mM EDTA, 1 mM dithiothreitol, 1 mM phenylmethylsulfonyl fluoride, and IX protease inhibitor cocktail)^17 and mixed with RM-2L Intelli-mixer for 30 min at 4° C. Lysates were then centrifuged at 12,000 g for 20 min at 4° C. 20 μg of lysate was added to 4 μL of Bolt reducing agent and 10 μL of reducing buffer (both reagents supplied by Thermo Fisher Scientific) for a final volume of 40 μL with PBS. Samples were boiled and run on a gel, transferred to a membrane and blocked for 1 hour in 5% skim milk at 25° C. Membrane was probed with either EGFR antibody #2232, GAPDH antibody #2118 or BS-Actin antibody #4970 (Cell Signalling) at 1:1000 in 5% skim milk/TBST overnight at 4° C. Each membrane was washed three times with 50 mL TBST for 5 mins and then incubated with the relevant secondary α-rabbit IgG-HRP-linked antibody (1:1000), for 1 hour at room temperature. The membrane was washed as described above and imaged with the Licor Odyssey.

For the next assay, the target named is T2, EGF-EGFR interaction (Homo sapiens, UniProt P00533).
T2 construct: purchased Perkin-Elmer
T2 sequence (P00533 25-645 limits assumed): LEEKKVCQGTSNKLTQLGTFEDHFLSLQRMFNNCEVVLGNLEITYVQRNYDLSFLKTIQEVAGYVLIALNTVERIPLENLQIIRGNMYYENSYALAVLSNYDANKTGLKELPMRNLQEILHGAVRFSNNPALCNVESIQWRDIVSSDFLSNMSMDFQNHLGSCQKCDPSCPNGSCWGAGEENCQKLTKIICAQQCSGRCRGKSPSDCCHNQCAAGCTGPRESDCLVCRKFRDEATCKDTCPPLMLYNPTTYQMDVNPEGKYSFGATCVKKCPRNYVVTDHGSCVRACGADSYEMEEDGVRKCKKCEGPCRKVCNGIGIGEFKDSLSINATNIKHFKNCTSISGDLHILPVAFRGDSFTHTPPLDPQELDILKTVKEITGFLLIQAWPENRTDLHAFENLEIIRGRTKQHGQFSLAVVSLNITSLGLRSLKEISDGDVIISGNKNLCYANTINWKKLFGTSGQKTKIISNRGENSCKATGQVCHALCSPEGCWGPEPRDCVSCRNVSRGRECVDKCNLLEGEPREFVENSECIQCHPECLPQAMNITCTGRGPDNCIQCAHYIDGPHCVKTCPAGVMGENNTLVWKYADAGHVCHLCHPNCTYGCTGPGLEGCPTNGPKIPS
As to the kind of experiment: EGF-EGFR AlphaLISA assay. Conditions: in vitro AlphaLISA. Format: binding. The method, then: FIG. 2. […] Representation of the molecules are as described in FIG. 1.
The AlphaLISA EGF/EGFR binding kit (Perkin-Elmer) was used as per the manufacturer's instructions. […] Finally, 5 μL of EGFR acceptor beads were added, and fluorescence imaged on a plate reader.

The test system of assay [2] is hGIIA-driven eicosanoid production. The note with it: prostate cancer cells; Mann et al. in review; cited from earlier work.
In assay [3] the test system is EGFR, Rab5 and hGIIA localisation. As to the kind of experiment: Live cell imaging of EGFR, Rab5 and hGIIA localisation in PC-3 cells. The assay is classed as cell-based. The note with it: PC-3, c2 10 μM with hGIIA/AF647, 24 hours.
Procedure: The effect of c2 on EGFR, Rab5 and hGIIA localisation was also examined in PC-3 cells. PC-3 cells were co-transfected with EGFR-EGFP and Rab5-mCherry before treatment with hGIIA/AF647 and c2 at 0, 1 and 10 μM.

EGFR, sequence (P00533 25-1210): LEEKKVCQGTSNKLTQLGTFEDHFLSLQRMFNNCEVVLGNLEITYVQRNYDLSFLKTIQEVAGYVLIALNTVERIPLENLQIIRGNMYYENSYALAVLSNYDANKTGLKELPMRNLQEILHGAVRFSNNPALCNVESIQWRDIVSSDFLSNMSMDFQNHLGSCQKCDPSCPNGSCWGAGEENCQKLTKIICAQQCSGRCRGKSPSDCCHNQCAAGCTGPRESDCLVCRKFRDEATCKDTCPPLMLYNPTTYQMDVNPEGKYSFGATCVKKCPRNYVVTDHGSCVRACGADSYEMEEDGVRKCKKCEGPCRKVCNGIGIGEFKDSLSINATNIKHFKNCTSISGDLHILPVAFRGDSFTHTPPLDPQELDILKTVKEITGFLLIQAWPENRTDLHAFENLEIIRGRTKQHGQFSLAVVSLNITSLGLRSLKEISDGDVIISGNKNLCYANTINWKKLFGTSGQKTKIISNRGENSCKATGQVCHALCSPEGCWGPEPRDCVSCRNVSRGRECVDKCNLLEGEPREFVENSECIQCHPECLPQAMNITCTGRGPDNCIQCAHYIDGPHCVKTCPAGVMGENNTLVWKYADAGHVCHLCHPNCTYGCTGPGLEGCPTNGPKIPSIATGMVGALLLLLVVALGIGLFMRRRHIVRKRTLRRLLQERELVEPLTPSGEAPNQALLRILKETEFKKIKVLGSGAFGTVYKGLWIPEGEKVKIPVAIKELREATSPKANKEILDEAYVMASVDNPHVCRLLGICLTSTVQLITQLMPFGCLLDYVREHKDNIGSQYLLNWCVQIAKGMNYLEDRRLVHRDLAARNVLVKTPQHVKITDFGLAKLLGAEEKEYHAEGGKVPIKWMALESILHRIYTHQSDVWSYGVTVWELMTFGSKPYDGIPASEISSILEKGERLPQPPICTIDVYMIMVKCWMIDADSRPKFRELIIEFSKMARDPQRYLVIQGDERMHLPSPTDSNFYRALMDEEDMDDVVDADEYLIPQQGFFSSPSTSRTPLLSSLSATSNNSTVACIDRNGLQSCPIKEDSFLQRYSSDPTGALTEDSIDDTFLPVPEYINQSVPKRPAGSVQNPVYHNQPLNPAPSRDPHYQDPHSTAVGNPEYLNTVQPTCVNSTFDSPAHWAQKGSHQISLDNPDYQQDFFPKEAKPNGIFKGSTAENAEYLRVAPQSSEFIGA
T1 sequence (P00533 25-1210): as above

Consider `CC(C)C[C@@H]1NC(=O)[C@H](Cc2ccc3ccccc3c2)NC(=O)[C@H](CCCNC(=N)N)NC(=O)[C@H](Cc2ccc3ccccc3c2)NC(=O)[C@H](CO)NC1=O` [FLM-c2, cyclo-((2-Nal)-Leu-Ser-(2-Nal)-Arg)] (cyclo([2Nal]LS[2Nal]R)), for which, in the assay with PC-3 cells, the IC50 (in general, the concentration needed to halve the response being measured) is 211 µM. Also, the “inhibition of hGIIA-EGFR interaction (EGFR signal after pulldown with hGIIA antibody)” value in assay [1] is reported as “able to inhibit this interaction”. Further, the “EGFR degradation by western blot” value at EGFR was “did not”. On EGF-EGFR interaction, the “potency order in inhibiting the EGF/EGFR interaction” value is listed as “FLM-c2>D1>D2>D3”. The “inhibition of the EGF/EGFR interaction” value on EGF-EGFR interaction (0.01-200 μM) is reported as “inhibited the EGF/EGFR interaction at high concentrations”. The “inhibition of hGIIA-driven eicosanoid production” value in assay [2] was “known to inhibit hGIIA-driven eicosanoid production”. In addition, the “effect on EGFR, Rab5 and hGIIA localisation” value in assay [3] is “increased hGIIA/AF647 and Rab5-mCherry punctate size, as well as circularisation of EGFR-GFP expression”.

Values taken from patent US20260028374A1, “EPIDERMAL GROWTH FACTOR RECEPTOR INHIBITORS” (FILAMON LTD, priority 2023, published 2026).
